Assay results from the supplement of paper PMC7840683.
Structures can show the parent of a compound that is named as a salt.

Tested on: HepaRG
Experiment: LDH release cytotoxicity, % of total lysis control; higher = more cytotoxic
Conditions: 48 h
In short: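 Eight-point half-log series of test chemicals, the highest at 100 µM, were given in duplicate for 48 h to single-lot HepaRG cells on collagen I-coated 96-well plates in serum-free induction medium with 0.5% DMSO. A Tecan Safire read resorufin fluorescence from CytoTox-ONE as a measure of LDH in 50 µL spent medium, with 0.1% Triton X in total lysis wells. Percent cytotoxicity was normalized to on-plate vehicle and total lysis controls and averaged over the duplicates.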

COc1ccc2sc(C(=O)Nc3nnn[nH]3)c(OC(C)C)c2c1 [CI-959]
Conditions	LDH release cytotoxicity [%]
0.03162 µM	-0.617
0.1 µM	-2.08
0.3162278 µM	-1.65
1 µM	-1.45
3.16228 µM	-2.51
10 µM	-2.33
31.6228 µM	3.57
100 µM	9.3

CCOP(=S)(OCC)Oc1ccc([N+](=O)[O-])cc1 [Parathion]
Conditions	LDH release cytotoxicity [%]
0.03162 µM	-1.76
0.1 µM	-2.78
0.3162278 µM	-2.35
1 µM	-2.92
3.16228 µM	-3.21
10 µM	-2.39
31.6228 µM	-1.78
100 µM	6.21

CN(C)c1ccc(C(=O)c2ccc(N(C)C)cc2)cc1 [Michler's ketone]
Conditions	LDH release cytotoxicity [%]
0.03162 µM	-2.16
0.1 µM	-1.79
0.3162278 µM	-1.41
1 µM	-2.73
3.16228 µM	2.66
10 µM	9.37
31.6228 µM	7.06
100 µM	12.9

CCCCC(CC)COC(=O)CCCCCCCCC(=O)OCC(CC)CCCC (stereo not drawn) [Bis(2-ethylhexyl) decanedioate]
Conditions	LDH release cytotoxicity [%]
0.03162 µM	-11.5
0.1 µM	-10.5
0.3162278 µM	-10.7
1 µM	-10.2
3.16228 µM	-10.2
10 µM	-10.1
31.6228 µM	-9.5
100 µM	-8.97

Clc1ccc(C(c2ccccc2Cl)C(Cl)(Cl)Cl)cc1 (stereo not drawn) [o,p'-DDT]
Conditions	LDH release cytotoxicity [%]
0.03162 µM	0.598
0.1 µM	-1.38
0.3162278 µM	-0.542
1 µM	-0.286
3.16228 µM	2.06
10 µM	10.3
31.6228 µM	12.9
100 µM	8.46

CCC(=O)C(CC(C)N(C)C)(c1ccccc1)c1ccccc1 (stereo not drawn) [Methadone hydrochloride]
Conditions	LDH release cytotoxicity [%]
0.0229265 µM	-1.18
0.0725 µM	-0.8
0.2292651 µM	-1.01
0.725 µM	-1.59
2.29265 µM	-0.919
7.25 µM	-0.638
22.926513 µM	0.191
72.5 µM	7.87

CC(C)(C)c1csc(-c2cc3cc(OCc4ccccc4CC(=O)O)ccc3o2)n1
Conditions	LDH release cytotoxicity [%]
0.031623 µM	1.06
0.1 µM	-2.14
0.316228 µM	-2.66
1 µM	-2.18
3.16228 µM	-2.37
10 µM	-3.649
31.6228 µM	-2.7
100 µM	64

N=C(Nc1ccccc1)Nc1ccccc1 [1,3-Diphenylguanidine]
Conditions	LDH release cytotoxicity [%]
0.03162 µM	-0.803
0.1 µM	-2.15
0.3162278 µM	-1.51
1 µM	-1.87
3.16228 µM	-1.59
10 µM	-1.1
31.6228 µM	-1.1
100 µM	0.505

Cn1cc(-c2ccccc2)c(=O)c(-c2cccc(C(F)(F)F)c2)c1 [1-Methyl-3-phenyl-5-(3-(trifluoromethyl)phenyl)-4-pyridone]
Conditions	LDH release cytotoxicity [%]
0.02893 µM	-1.78
0.0915 µM	-1.31
0.289348 µM	-1.94
0.915 µM	-2.56
2.89348 µM	-2.08
9.15 µM	-2.29
28.9348 µM	-1.81
91.5 µM	20.3

N#CC(CCc1ccc(Cl)cc1)(Cn1cncn1)c1ccccc1 (stereo not drawn) [Fenbuconazole]
Conditions	LDH release cytotoxicity [%]
0.03162 µM	-0.994
0.1 µM	-0.764
0.3162278 µM	-0.539
1 µM	-0.261
3.16228 µM	-0.9
10 µM	-0.281
31.6228 µM	5.08
100 µM	31.3

c1ccc2cc3ccccc3cc2c1 [Anthracene]
Conditions	LDH release cytotoxicity [%]
0.031623 µM	-2.31
0.1 µM	-2.92
0.316228 µM	-3.34
1 µM	-2.01
3.16228 µM	-2.51
10 µM	-2.69
31.6228 µM	-1.53
100 µM	2.42

CCCN(CCC)c1c([N+](=O)[O-])cc(C(F)(F)F)cc1[N+](=O)[O-] [Trifluralin]
Conditions	LDH release cytotoxicity [%]
0.03162 µM	-4.73
0.1 µM	-5.31
0.3162278 µM	-5.66
1 µM	-6.43
3.16228 µM	-5.85
10 µM	-6.17
31.6228 µM	-2.1
100 µM	66.3

CON=C(C1=NOCCO1)c1ccccc1Oc1ncnc(Oc2ccccc2Cl)c1F [Fluoxastrobin]
Conditions	LDH release cytotoxicity [%]
0.03162 µM	-1.84
0.1 µM	-1.61
0.3162278 µM	-0.5866
1 µM	0.517
3.16228 µM	-0.886
10 µM	-0.0116
31.6228 µM	13.1
100 µM	33.8

CCCCOCCOCCOCc1cc2c(cc1CCC)OCO2 [Piperonyl butoxide]
Conditions	LDH release cytotoxicity [%]
0.031939 µM	-0.462
0.101 µM	-2.71
0.31939 µM	-2.69
1.01 µM	-3.07
3.1939 µM	-2.38
10.1 µM	-1.93
31.939 µM	-0.729
101 µM	4.54

Cc1cc(N=Nc2ccccc2C)ccc1N [o-Aminoazotoluene]
Conditions	LDH release cytotoxicity [%]
0.03162 µM	1.25
0.1 µM	0.0136
0.3162278 µM	-0.529
1 µM	-1.5
3.16228 µM	0.597
10 µM	-0.361
31.6228 µM	-0.392
100 µM	1.11

Oc1cccc2cccnc12 [8-Hydroxyquinoline]
Conditions	LDH release cytotoxicity [%]
0.03162 µM	-1.07
0.1 µM	-1.23
0.3162278 µM	-1.16
1 µM	-1.2
3.16228 µM	-1.01
10 µM	-0.111
31.6228 µM	0.218
100 µM	2.33

Oc1ccccc1Cl [2-Chlorophenol]
Conditions	LDH release cytotoxicity [%]
0.03162 µM	-2.95
0.1 µM	-4.22
0.3162278 µM	-4.63
1 µM	-4.14
3.16228 µM	-3.68
10 µM	-3.65
31.6228 µM	-2.05
100 µM	1.5

O=C(Nc1ccc([N+](=O)[O-])cc1Cl)c1cc(Cl)ccc1O [5-Chloro-N-(2-chloro-4-nitrophenyl)-2-hydroxybenzamide]
Conditions	LDH release cytotoxicity [%]
0.03162 µM	1.65
0.1 µM	-0.562
0.3162278 µM	-0.79
1 µM	-0.00174
3.16228 µM	0.224
10 µM	1.07
31.6228 µM	1.7
100 µM	4.52

O=C(O)C(F)(F)C(F)(F)C(F)(F)C(F)(F)C(F)(F)C(F)(F)C(F)(F)C(F)(F)C(F)(F)F [Perfluorodecanoic acid]
Conditions	LDH release cytotoxicity [%]
0.031623 µM	2.61
0.1 µM	-0.365
0.316228 µM	-0.683
1 µM	-0.768
3.16228 µM	-7.62
10 µM	7.64
31.6228 µM	8.49
100 µM	44.4

O=C(O)c1cccnc1 [Nicotinic acid]
Conditions	LDH release cytotoxicity [%]
0.0327296 µM	-1.39
0.1035 µM	-1.35
0.327296 µM	-1.95
1.035 µM	-1.67
3.27296 µM	-1.83
10.35 µM	-0.596
32.729574 µM	-0.819
103.5 µM	0.214

O=P(Oc1ccccc1)(Oc1ccccc1)Oc1ccccc1 [Triphenyl phosphate]
Conditions	LDH release cytotoxicity [%]
0.03162 µM	0.948
0.1 µM	-1.27
0.3162278 µM	-1.47
1 µM	-1.41
3.16228 µM	-0.353
10 µM	0.138
31.6228 µM	2.03
100 µM	27.1

Cc1nn(-c2cc(NS(C)(=O)=O)c(Cl)cc2Cl)c(=O)n1C(F)F [Sulfentrazone]
Conditions	LDH release cytotoxicity [%]
0.03162 µM	-1.66
0.1 µM	-1.99
0.3162278 µM	-2.52
1 µM	-2.37
3.16228 µM	-0.982
10 µM	-1.17
31.6228 µM	-1.23
100 µM	0.713

O=C(OC[C@H]1O[C@@H](OC(=O)c2cc(O)c(O)c(OC(=O)c3cc(O)c(O)c(O)c3)c2)[C@H](OC(=O)c2cc(O)c(O)c(OC(=O)c3cc(O)c(O)c(O)c3)c2)[C@@H](OC(=O)c2cc(O)c(O)c(OC(=O)c3cc(O)c(O)c(O)c3)c2)[C@@H]1OC(=O)c1cc(O)c(O)c(OC(=O)c2cc(O)c(O)c(O)c2)c1)c1cc(O)c(O)c(OC(=O)c2cc(O)c(O)c(O)c2)c1 [Tannic acid]
Conditions	LDH release cytotoxicity [%]
0.0096449 µM	-1.06
0.0305 µM	-1.19
0.0964495 µM	-2.39
0.305 µM	-2.34
0.964495 µM	-3.92
3.05 µM	-4.5
9.64495 µM	-0.0405
30.5 µM	5.317

CCCCC(C#N)(Cn1cncn1)c1ccc(Cl)cc1 (stereo not drawn) [Myclobutanil]
Conditions	LDH release cytotoxicity [%]
0.031623 µM	0.809
0.1 µM	0.0936
0.316228 µM	-0.274
1 µM	-0.556
3.16228 µM	-7.8
10 µM	8.33
31.6228 µM	0.7089
100 µM	7.68

Nc1ccc(C(=O)O)cc1 [4-Aminobenzoic acid]
Conditions	LDH release cytotoxicity [%]
0.031623 µM	-2.09
0.1 µM	-1.2
0.316228 µM	-0.757
1 µM	-2.3
3.16228 µM	-2.47
10 µM	-1.41
31.6228 µM	-0.777
100 µM	1.93

FC(F)C(F)(F)OCC(Cn1cncn1)c1ccc(Cl)cc1Cl (stereo not drawn) [Tetraconazole]
Conditions	LDH release cytotoxicity [%]
0.0314647 µM	-0.665
0.0995 µM	-2.23
0.3146466 µM	-1.54
0.995 µM	-2.38
3.14647 µM	-2.48
9.95 µM	-2.1
31.4647 µM	1.5
99.5 µM	52.5
